Read-outs that look alike come from different tables or passages of the source.
How the values were obtained:
Format in all cases: cell-based
[1] = tested on: hepatocytes; test: Hepatocyte hypertrophy in sandwich cultures with soluble HGF; settings: soluble HGF alone, data not shown
Source text: (§1) Hepatocyte growth factor (HGF) was implicated as one of the contributing factors causing dog hepatocyte hypertrophy and motility in the co-culture (data not shown). […] In summation, chemical inhibition (for example, via dexamethasone and TGFB2) of HGF secretion in the standard HepatoPac™ format is sufficient to abrogate hepatocyte hypertrophy.

[2] = tested on: HGF; test: HGF secretion in standard HepatoPac co-culture under chemical inhibition; settings: standard HepatoPac format
Source text: as §1

[3] = tested on: dog hepatocytes; test: Dog hepatocyte hypertrophy in standard HepatoPac micropatterned co-culture
Protocol: In order to create micropatterned co-cultures, hepatocytes were seeded in serum-free hepatocyte medium on collagen-patterned 24-well cell culture plates, resulting in a hepatocyte pattern due to selective cell adhesion. The cells were washed with media 2 to 6 hours later to remove unattached cells and incubated with serum supplemented hepatocyte medium overnight. 3T3-J2 or BJ fibroblasts were seeded in serum-supplemented fibroblast medium 12-24 hours later to create co-cultures. Culture medium was replaced with hepatocyte medium 24 hours after fibroblast seeding and subsequently replaced every one to two days. Spent media was stored for biochemical assays.
as §1

Row | Compound | hepatocyte hypertrophy [1] | HGF level (secretion) [2] | dog hepatocyte hypertrophy [3] | dog hepatocyte hypertrophy ([3]; standard HepatoPac format, 3T3-J2 stromal cells)
1 | Soluble human HGF: Hepatocyte growth factor, soluble human protein added to sandwich cultures | did not result in hepatocyte hypertrophy |  |  | 
2 | TGFB2: HGF-inhibiting agent; known chemical inhibitor of HGF secretion |  | HGF knockdown | diminished hypertrophy | 
3 | C[C@H](CCC(=O)O)[C@H]1CC[C@H]2[C@@H]3[C@@H](O)C[C@@H]4C[C@H](O)CC[C@]4(C)[C@H]3CC[C@]12C [UDCA] |  | reduction in HGF | decreased dog hepatocyte hypertrophy | 
4 | C[C@@H]1C[C@H]2[C@@H]3CCC4=CC(=O)C=C[C@]4(C)[C@@]3(F)[C@@H](O)C[C@]2(C)[C@@]1(O)C(=O)CO [dexamethasone] |  |  | diminished hypertrophy | 
5 | O=C1c2ccccc2-n2c1nc1ccccc1c2=O [tryptanthrin] |  | reduction in HGF |  | decreased dog hepatocyte hypertrophy

Reference: patent US10696949B2, “Systems and methods for canine liver modeling” (Hepregen Corporation, priority 2015, dated 2020)
